Reference: patent US10201535B2 (priority 2011, dated 2019)

Assays:
[1] = Description: To assure the integrity of each skin section, its permeability to tritiated water was determined before application of the test products.
[2] = system: UVB-exposed skin of SKH1 hairless mice; assay: Mouse Model of UV-Induced Erythema (histology of back skin); type: in vivo; conditions: for mice with overall healing good to excellent / EPIDERMIS Hyperplasia / DERMIS Congestion / DERMIS Edema / DERMIS Infiltrates / EPIDERMIS Disorganization / EPIDERMIS Necrosis / EPIDERMIS Separation: skin 48 hours after UVB; for EPIDERMIS Hyperplasia / DERMIS Congestion / DERMIS Edema / DERMIS Infiltrates / EPIDERMIS Disorganization / EPIDERMIS Necrosis / EPIDERMIS Separation: mean grade
Description: The right backs of male SKH1 hairless mice were exposed to 120 mJ/cm^2 UVB radiation, while the left sides were shielded. […] An additional group with vehicle applied topically at 20 minutes post UVB exposure served as a control. Samples of skin from the backs from both left and right sides were collected 48 hours following UVB exposure and examined histologically.
Each endpoint is graded on a scale of 0-4 (0=no findings, 1=minimal, 2=mild, 3=moderate, 4=marked). Data are expressed as the mean of values from 6 mice per group.

[3] = system: LL-37-induced skin inflammation; assay: LL-37-Induced Skin Inflammation Mouse Model (ear swelling); type: in vivo; conditions: at 6 and 9 hrs after topical treatment, gel on ears of BALB/c mice
Description: One hour following application, the left ear was intradermally injected with LL-37 peptide and the right ear was injected with phosphate-buffered saline (PBS). Ear thickness measurements were made with a digital caliper (Mitutoyo) at various timepoints up to 8 hrs post-injection with LL-37. Ear swelling is an indicator of inflammation.
The data are the mean values from 9-10 mice per group.

[4] = system: UVB-induced erythema, cutaneous vessel dilation and tactile hypersensitivity in SKH1 hairless mice; assay: Ultraviolet B-Induced Mouse Sunburn Model; type: in vivo
From the text: SKH1 hairless mice, lying on their stomachs with their left sides covered, were exposed to UVB at an intensity of 120 mJ/cm^2 for 91 sec. […] At various timepoints up to 48 hrs post UVB-irradiation, the following assessments were made:
1. Vasculature area in the exposed and unexposed ears by image analysis of digital photos using ImagePro Premier (Media Cybernetics) software. Images are converted to gray-scale, expanded and thresholding, based on each ear's baseline pixel values, is applied to the images. Thresholding differentiates the desired “object” features (i.e. vasculature network) from the background (i.e. skin tissue). The “object” pixels are then quantified and reported as the vasculature area.
2. Erythema on the exposed and unexposed back using a Chromameter (Konica Minolta).
3. Tactile hypersensitivity assessment using a paint brush test. The hypersensitivity is assessed by light stroking of the flank of the mice with a small paint brush every 5 min over 35 min. The behavioral response is scored as follows: 0, no response; 1, mild squeaking with attempts to move away from the brush; 2, vigorous squeaking evoked by the brush, biting at the brush and strong efforts to escape. The scores at the eight timepoints are summed so the maximum hypersensitivity score for each mouse can be 16. The exposed (right) and unexposed (left) flanks were scored independently.

[5] = system: 37° C. induced vessel dilation (cutaneous blood flow) in rat paws; assay: Rat Blood Flow Assay (laser Doppler flowmetry, hind foot pad); type: in vivo; conditions: 4 days of topical dosing (once per day), 0.1%, hairless CD rats
Description: A laser Doppler microvascular perfusion monitor (laser Doppler flowmetry technique, LDF) was used to monitor red blood cell perfusion in the microvasculature of the hind foot pad. The laser doppler flowmetry (LDF) is an OxyFlo Microvascular Perfusion Monitor, from Oxford Optronix Ltd. UK.
Briefly, 15 μL of test articles was applied topically once, or repeatedly (once daily for 4 consecutive days) to one hind foot pad of anaesthetized hairless CD rats and 15 μL of vehicle was applied to the other footpad.
At various timepoints up to 8 hrs following the last test article administration, dynamic blood flow changes were measured and recorded every 15 seconds for 4 minutes per temperature interval for 5 intervals (22° C.→37° C.→4° C.→37° C.→22° C.).
Rats were placed on a 37° C. heat pad to increase their temperature and on an ice pad to decrease their temperature to 4° C. The levels of blood flow in the two paws were compared.
The % blood flow inhibition is calculated as the % difference in the AUC of peak 1 (first 8 min heating and cooling interval) of the laser doppler recordings between the drug-treated and vehicle-treated paws. Data are the mean % inhibition values from 8-10 rats per group.

[6] = 0.1% topical, 20 minutes following UVB exposure
[7] = scale 0-4, 0.1% topical 20 min after UVB
[8] = scale 0-4, 0.1% topical 4 hr after UVB
[9] = scale 0-4, 0.1% topical 8 hr after UVB

For `c1cnc2c(c1)CC[C@H](Cc1c[nH]cn1)C2` [(S)-(+)-7-(1H-Imidazol-4-ylmethyl)-5,6,7,8-tetrahydro-quinoline], the “penetration into and through skin” value [1] was “does penetrate into and through ex vivo human trunk skin”, the “distribution in skin layers (mass recovered)” value ([1]; 48 hour dose exposure, 0.58% (w/w) dose, FIG. 3) was “higher concentration in the epidermis” and the “rate of percutaneous absorption (flux into receptor solution)” value ([1]; human) was “increased rate of flux at the 18 and 36 hr timepoints”. For the same molecule, the “edema, mixed inflammatory cell infiltrates and vascular congestion of the underlying dermis” value [2, 6] was “significantly reduced”, the “outcome of healing of UVB-exposed back skin” value [2, 6] was “significantly improved the outcome of healing” and the “mice with overall healing good to excellent” value (“mice with overall healing good” below) ([2]; 0.1% topical, treated at 20 minutes post UVB exposure) was 75%. For the same molecule, the “mice with overall healing good” value ([2]; 0.1% topical, treated at 4 hours post UVB exposure) was 50%, the “mice with overall healing good” value ([2]; 0.1% topical, treated at 8 hours post UVB exposure) was 60% and the “mice with epidermal failure (moderate to marked separation and necrosis)” value ([2]; 0.1% topical, treated up to 8 hours following UVB exposure (all treated mice)) was 8%. For the same molecule, the “EPIDERMIS Hyperplasia” value ([2]; scale 0-4 (0=no findings, 4=marked), 0.1% topical 20 min after UVB) was 3.0, the “DERMIS Congestion” value [2, 7] was 1.0 and the “DERMIS Edema” value [2, 7] was 0.5. The “DERMIS Infiltrates” value [2, 7] was 0.8, the “EPIDERMIS Disorganization” value [2, 7] was 2.0 and the “EPIDERMIS Necrosis” value [2, 7] was 0.5. The “EPIDERMIS Separation” value [2, 7] was 0.3, the “DERMIS Congestion” value [2, 8] was 1.8 and the “DERMIS Edema” value [2, 8] was 2.0. The “DERMIS Infiltrates” value [2, 8] was 2.0, the “EPIDERMIS Disorganization” value [2, 8] was 3.0 and the “EPIDERMIS Hyperplasia” value [2, 8] was 2.3. The “EPIDERMIS Necrosis” value [2, 8] was 1.3, the “EPIDERMIS Separation” value [2, 8] was 1.3 and the “DERMIS Congestion” value [2, 9] was 1.0. For the same molecule, the “DERMIS Edema” value [2, 9] was 1.5, the “DERMIS Infiltrates” value [2, 9] was 0.8 and the “EPIDERMIS Disorganization” value [2, 9] was 2.0. For the same molecule, the “EPIDERMIS Hyperplasia” value [2, 9] was 3.3, the “EPIDERMIS Necrosis” value [2, 9] was 1.0 and the “EPIDERMIS Separation” value [2, 9] was 1.3. The “inhibition of LL-37-induced skin inflammation (ear swelling)” value [3] was “statistically significant inhibition”, the “duration of statistically significant reduction of erythema to nearly baseline levels (chromameter)” value ([4]; topical dosing to the back 30 min following UVB exposure) was “at least 48 hrs” and the “tactile hypersensitivity (paint brush test)” value ([4]; topical dosing to the back 30 min following UVB exposure, assessed 4 hrs following UVB irradiation, both UV-exposed and control sides) was “statistically significant reduction of tactile hypersensitivity”. For the same molecule, the “duration of statistically significant cutaneous vasoconstriction (reduction of cutaneous vasculature area) to nearly baseline levels” value ([4]; topical dosing to the ear 30 min following UVB exposure) was “at least 48 hrs” and the “duration of statistically significant inhibition of 37° C. induced vessel dilation” value [5] was “at least 6 hrs”.
